Experimental data: article PMC6023986, “Interactions Between Emodin and Efflux Transporters on Rat Enterocyte by a Validated Ussing Chamber Technique” (Frontiers in Pharmacology, 2018)
Like-named read-outs stand apart in the source and are kept apart here.

Key:
MRP2 [1] = molecular target: T1, MRP2 (Rattus norvegicus, UniProt Q63120); assay: Ussing chamber bidirectional transport, model validation for MRP2 (pravastatin substrate, MK571 inhibitor); format: in vitro ADME; design: intestinal segments including duodenum, jejunum, ileum, and colon from anesthetized rats were immediately removed by surgery; from tissue; host or cells: stripped rat intestine (jejunum and ileum in validation; jejunum for the emodin studies); conditions: rat
From the text: (§1) The four intestinal segments including duodenum, jejunum, ileum, and colon from anesthetized rats were immediately removed by surgery and washed with KRB solution. Each section of the intestinal segments was then placed in cold (on ice), bubbled (O2:CO2 95:5) KRB buffer. The four intestinal segments were then cut into 2 cm pieces, respectively, and serosas were removed by blunt dissection. Peyer’s patches were excluded from the experiment by visually identified. The stripped tissues were mounted in chambers with exposed surface area of 0.49 cm^2. Temperature of the chambers was maintained at 37 ± 0.5°C. Each of the half-cells in the chambers was filled with 5 mL fresh KRB buffer (pH 6.5). Tissue viability was continuously controlled by potential difference (PD).
Digoxin, pravastatin, and teniposide were employed as the test substrates of P-gp, MRP2, and MRP3. […] The experiments were started after 30 min equilibration time, by changing the KRB buffer on both sides; 5 mL KRB solution with different test compounds was filled in the mucosal or serosal compartment; meanwhile, equal volume fresh buffer was added to the other compartment. […] The bidirectional transport studies with specific inhibitors were assessed to validate this model whether or not suitable for P-gp, MRP2, and MRP3 studies.
(§2) Frozen samples were adequately vortexed after thawing at the room temperature; 10 μL suitable IS solution was added to 200 μL samples; 200 μL methanol was added after a thorough vortex mixing for 30 s. The mixtures were then vortexed for 30 s and centrifuged at 15,000 rpm for 30 min. Finally, 5 μL of supernatant was injected into the LC-MS/MS system.
The quantifications of the compounds were performed by the TSQ Quantum Ultra Triple Quadrupole LC-MS/MS system from Thermo Fisher Scientific. […] Adaptive gradient elution methods were applied for the analytes. The flow rate of the mobile phase was kept at 0.2 mL min^-1. Flow was directed to the ion spray interface. All measurements were carried out in negative ESI mode. Ion spray voltage was -2500 V. Vaporizer and capillary temperatures were set at 250 and 350°C, respectively. Auto sampler temperature was set at 10°C. Sheath gas and aux gas were set at 30 and 15 Arb, respectively. […] Peak integrations and calibrations were carried out using LC Quan 2.5.2 software from Thermo Fisher Scientific.
(§3) where Cn (nM) is the concentration of the drug at the time point (n), Q (nM) is the accumulated absorption amount, A is the exposed surface area of the intestine (0.49 cm^2), dQ/dt (nM⋅s^-1) is the amount of the drug transported, and C0 (nM) is the initial concentration of the test drug. Experiments were performed in batches, so control groups were set as one for each batch.

MRP2 [2] = molecular target: T1, MRP2; assay: Influence of emodin on MRP2 function: pravastatin bidirectional transport in the presence of emodin (Ussing chamber); format: in vitro ADME; design: intestinal segments including duodenum, jejunum, ileum, and colon from anesthetized rats were immediately removed by surgery; from tissue; host or cells: stripped rat intestine (jejunum and ileum in validation; jejunum for the emodin studies); conditions: rat jejunum; for Papp at 47 μM: rat
From the text: as §1, with “(PD). Tissue with electrical values less than 2 mV was refused ([Moazed and Hiebert, 2007]; [Heinen et al., 2013]).” for “(PD).”
In this study, the effects of the three efflux transporters on emodin intestinal absorption were investigated. Meanwhile, the influence of emodin on intestinal P-gp, MRP2, and MRP3 functions were also discussed. Solutions with three concentrations (low, middle, and high) of emodin were filled in the mucosal or serosal compartment to measure the bidirectional transport characteristic. […] In the emodin impact experiments, digoxin, pravastatin, and teniposide were employed as P-gp, MRP2, and MRP3 substrates. Changes of the bidirectional transport characteristic were measured before and after adding emodin to the mucosal side.
as §2
The quantifications of the compounds were performed by the TSQ Quantum Ultra Triple Quadrupole LC-MS/MS system from Thermo Fisher Scientific. Chromatography was carried out using an Agilent Poroshell 120 SB-C18 (2.7 μm, 2.1 mm × 100 mm) column with a Phenomenex AFO-8497 C18 pre-column, operating at 30°C. Adaptive gradient elution methods were applied for the analytes. The flow rate of the mobile phase was kept at 0.2 mL min^-1. Flow was directed to the ion spray interface. All measurements were carried out in negative ESI mode. Ion spray voltage was -2500 V. Vaporizer and capillary temperatures were set at 250 and 350°C, respectively. Auto sampler temperature was set at 10°C. Sheath gas and aux gas were set at 30 and 15 Arb, respectively. […] Peak integrations and calibrations were carried out using LC Quan 2.5.2 software from Thermo Fisher Scientific.
The Q (accumulative quantity), Papp (apparent permeability), Er (efflux ratio), Pr (Papp ratio), and Err (Er ratio) across the excited rat intestinal segments in the Ussing chamber were calculated using the following equations ([Li et al., 2012]; [Huang et al., 2016]): […]
as §3

T1 sequence (Q63120 whole entry): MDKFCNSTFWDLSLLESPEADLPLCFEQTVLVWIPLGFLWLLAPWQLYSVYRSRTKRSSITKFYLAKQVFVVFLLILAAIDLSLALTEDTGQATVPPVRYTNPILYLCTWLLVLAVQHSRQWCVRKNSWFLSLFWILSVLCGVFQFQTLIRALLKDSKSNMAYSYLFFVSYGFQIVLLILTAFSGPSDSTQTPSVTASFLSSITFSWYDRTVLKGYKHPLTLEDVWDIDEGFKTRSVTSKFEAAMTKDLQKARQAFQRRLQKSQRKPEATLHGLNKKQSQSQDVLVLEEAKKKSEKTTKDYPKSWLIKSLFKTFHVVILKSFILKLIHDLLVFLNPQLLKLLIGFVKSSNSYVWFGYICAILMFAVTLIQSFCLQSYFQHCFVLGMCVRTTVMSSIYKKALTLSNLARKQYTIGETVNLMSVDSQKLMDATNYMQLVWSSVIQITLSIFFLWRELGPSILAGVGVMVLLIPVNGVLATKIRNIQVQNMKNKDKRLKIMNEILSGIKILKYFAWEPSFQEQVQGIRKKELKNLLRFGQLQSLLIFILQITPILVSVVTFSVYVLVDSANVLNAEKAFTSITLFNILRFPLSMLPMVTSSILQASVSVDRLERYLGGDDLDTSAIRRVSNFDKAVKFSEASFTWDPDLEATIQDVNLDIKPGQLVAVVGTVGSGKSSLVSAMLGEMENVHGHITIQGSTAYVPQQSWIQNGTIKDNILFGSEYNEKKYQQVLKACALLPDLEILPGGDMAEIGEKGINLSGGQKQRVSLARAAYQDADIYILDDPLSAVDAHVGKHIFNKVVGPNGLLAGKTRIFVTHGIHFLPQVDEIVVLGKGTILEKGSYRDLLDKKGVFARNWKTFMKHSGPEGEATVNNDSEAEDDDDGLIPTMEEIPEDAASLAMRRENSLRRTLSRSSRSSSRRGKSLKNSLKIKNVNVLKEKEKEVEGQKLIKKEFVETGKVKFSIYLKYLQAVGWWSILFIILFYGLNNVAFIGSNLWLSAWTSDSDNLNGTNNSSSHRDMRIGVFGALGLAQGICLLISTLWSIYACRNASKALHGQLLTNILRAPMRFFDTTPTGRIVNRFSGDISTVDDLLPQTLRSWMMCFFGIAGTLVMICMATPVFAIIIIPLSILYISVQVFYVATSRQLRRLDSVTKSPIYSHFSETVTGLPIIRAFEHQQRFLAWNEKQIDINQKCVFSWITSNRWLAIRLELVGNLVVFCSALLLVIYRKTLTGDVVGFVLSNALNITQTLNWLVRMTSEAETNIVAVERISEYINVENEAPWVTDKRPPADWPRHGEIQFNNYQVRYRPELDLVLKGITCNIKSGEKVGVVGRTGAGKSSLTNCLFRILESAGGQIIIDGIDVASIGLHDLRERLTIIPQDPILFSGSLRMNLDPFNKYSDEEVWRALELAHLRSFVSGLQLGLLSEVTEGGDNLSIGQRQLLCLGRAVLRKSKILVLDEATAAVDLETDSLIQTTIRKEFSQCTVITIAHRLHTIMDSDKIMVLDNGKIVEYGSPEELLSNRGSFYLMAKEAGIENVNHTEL

Papp (MRP2 [1]; pH 6.5, rat duodenum, without inhibitor, read-out: Papp M-S, control): 124 ± 67.3 ×10⁻⁶ cm/s
Papp (MRP2 [1]; pH 6.5, rat duodenum, without inhibitor, read-out: Papp S-M, control): 287 ± 165 ×10⁻⁶ cm/s
Papp (MRP2 [1]; pH 6.5, rat ileum, without inhibitor, read-out: Papp M-S, control): 122 ± 52.5 ×10⁻⁶ cm/s
Papp (MRP2 [1]; pH 6.5, rat ileum, without inhibitor, read-out: Papp S-M, control): 678 ± 325 ×10⁻⁶ cm/s
Papp (MRP2 [1]; pH 6.5, rat jejunum, without inhibitor, read-out: Papp M-S, control): 146 ± 39.4 ×10⁻⁶ cm/s
Papp (MRP2 [1]; pH 6.5, rat jejunum, without inhibitor, read-out: Papp S-M, control): 496 ± 226 ×10⁻⁶ cm/s
Papp (MRP2 [1]; pH 6.5, with MK571 186 μM on mucosal side, rat jejunum, with MK571 186 μM on mucosal side, read-out: Papp S-M, with inhibitor): 127 ± 33.4 ×10⁻⁶ cm/s
Papp (MRP2 [1]; pH 6.5, with MK571 186 μM, mucosal side, rat duodenum, with MK571 186 μM on mucosal side, read-out: Papp M-S, with inhibitor): 77.9 ± 14.8 ×10⁻⁶ cm/s
Papp (MRP2 [1]; pH 6.5, with MK571 186 μM, mucosal side, rat duodenum, with MK571 186 μM on mucosal side, read-out: Papp S-M, with inhibitor): 112 ± 52.7 ×10⁻⁶ cm/s
Papp (MRP2 [1]; pH 6.5, with MK571 186 μM, mucosal side, rat ileum, with MK571 186 μM on mucosal side, read-out: Papp M-S, with inhibitor): 124 ± 67.9 ×10⁻⁶ cm/s
Papp (MRP2 [1]; pH 6.5, with MK571 186 μM, mucosal side, rat ileum, with MK571 186 μM on mucosal side, read-out: Papp S-M, with inhibitor): 224 ± 141 ×10⁻⁶ cm/s
Papp (MRP2 [1]; pH 6.5, with MK571 186 μM, mucosal side, rat jejunum, with MK571 186 μM on mucosal side, read-out: Papp M-S, with inhibitor): 107 ± 26.8 ×10⁻⁶ cm/s
Change of Papp and Er values of pravastatin after emodin added (MRP2 [2]; pravastatin 47 μM, emodin 185, 370, 740 μM): No significant differences
Papp at 47 μM (MRP2 [2]; pH 6.5, pravastatin 47 μM, without emodin, read-out: Papp M-S, control): 64.5 ± 27.9 ×10⁻⁶ cm/s
Papp at 47 μM (MRP2 [2]; pH 6.5, pravastatin 47 μM, without emodin, read-out: Papp S-M, control): 82.2 ± 40.4 ×10⁻⁶ cm/s
Papp at 47 μM (MRP2 [2]; pH 6.5, with emodin 185 μM on mucosal side, pravastatin 47 μM, emodin 185 μM on mucosal side, read-out: Papp M-S in the presence of emodin): 123 ± 19.9 ×10⁻⁶ cm/s
Papp at 47 μM (MRP2 [2]; pH 6.5, with emodin 185 μM on mucosal side, pravastatin 47 μM, emodin 185 μM on mucosal side, read-out: Papp S-M in the presence of emodin): 70.3 ± 19.8 ×10⁻⁶ cm/s
Papp at 47 μM (MRP2 [2]; pH 6.5, with emodin 370 μM on mucosal side, pravastatin 47 μM, emodin 370 μM on mucosal side, read-out: Papp M-S in the presence of emodin): 106 ± 40.3 ×10⁻⁶ cm/s
Papp at 47 μM (MRP2 [2]; pH 6.5, with emodin 370 μM on mucosal side, pravastatin 47 μM, emodin 370 μM on mucosal side, read-out: Papp S-M in the presence of emodin): 90.8 ± 12.7 ×10⁻⁶ cm/s
Papp at 47 μM (MRP2 [2]; pH 6.5, with emodin 740 μM on mucosal side, pravastatin 47 μM, emodin 740 μM on mucosal side, read-out: Papp M-S in the presence of emodin): 93.8 ± 28.7 ×10⁻⁶ cm/s
Papp at 47 μM (MRP2 [2]; pH 6.5, with emodin 740 μM on mucosal side, pravastatin 47 μM, emodin 740 μM on mucosal side, read-out: Papp S-M in the presence of emodin): 105 ± 27.3 ×10⁻⁶ cm/s
Structure (SMILES): CC[C@H](C)C(=O)O[C@H]1C[C@H](O)C=C2C=C[C@H](C)[C@H](CC[C@@H](O)C[C@@H](O)CC(=O)O)[C@H]21 [Pravastatin]
